Experimental data reported in PubChem BioAssay AID651856 (Broad Institute, 2012).

System: non-replicating M. tuberculosis, luciferase expression
Test: non-replicating M. tuberculosis inhibition, confirmation, luciferase expression (AID 651856)

SMILES | IC90 [µM]
O=S(Cc1ccccc1)c1nnc(-c2ccccc2)o1 (stereo not drawn) | 1
Clc1ccc(-c2nnc(SCc3cn(Cc4ccccc4)nn3)o2)cc1 | 4
O=S(=O)(Cc1ccccc1)c1nnc(-c2ccccc2)o1 | 4
O=S(Cc1cn(Cc2ccc(F)cc2)nn1)c1nnc(-c2ccc(Cl)cc2)o1 (stereo not drawn) | 4
O=S(=O)(Cc1cn(Cc2ccccc2)nn1)c1nnc(-c2ccc(Cl)cc2)o1 | 8
c1ccc(CSc2nnc(-c3ccccc3)o2)cc1 | 16
Fc1ccc(Cn2cc(CSc3nnc(-c4ccc(Cl)cc4)o3)nn2)cc1 | 2
O=S(Cc1cn(Cc2ccccc2)nn1)c1nnc(-c2ccc(Cl)cc2)o1 (stereo not drawn) | 1
